Key:
Streptomyces versicolor = test: disk diffusion assay on LB-agar plates; assay type: cell-based; details: 10 µg in 30 µL 50% MeOH per disk
Description: (§1) The antifungal activity of the compounds according to the present invention, in particular hassallidin A and hassallidin B, was verified for Aspergillus fumigatus and Candida albicans by minimum inhibitory concentration (MIC) data in a serial dilution test. For each fungus six testing wells of a microtiter plate were prepared with 240 µL medium (Sigma RPMI-1640), 10 µL inoculum suspension and 50 µL fungicide solution (50% MeOH) of different concentrations. Inoculum preparation was carried out by guideline of NCCLS.^25 The fungicide solution preparation took place in a series of twofold dilutions from a stock solution of 92 µg/mL starting with 4.6 µg/50 µL down to 0.14 µg/50 µL. One well was prepared without antifungal agent for unhindered growth as control. The microtiter plates were incubated for Candida albicans and Aspergillus fumigatus at 35 °C for 24 h and 48 h, respectively. Tests were run in triplicates. Inhibition of growth was assessed by comparing the fungal growth of the test samples with the control well by determination of optical density at 595 nm in a microplate reader. The concentration of the well at highest dilution that was still free from growth was assigned the minimum inhibitory concentration (MIC in µg/mL). […] No activities were observed by using Bacillus subtilis, Streptomyces versicolor or Escherchia coli in disk diffusion assays on LB-agar plates with 10 µg hassallidin A in 30 µL 50% MeOH per disk.

Escherchia coli = test: disk diffusion assay on LB-agar plates; assay type: cell-based; details: 10 µg in 30 µL 50% MeOH per disk
Description: as §1

Bacillus subtilis = test: disk diffusion assay on LB-agar plates; assay type: cell-based; details: 10 µg in 30 µL 50% MeOH per disk
Description: as §1

ATCC 6258 (QC) = test: microdilution assay (NCCLS), inhibitory concentration (IC); assay type: cell-based, Candida krusei; details: Table 4 series, RPMI-1640 medium
[1] = test system: Cryptococcus neoformas RKI 18/05; test: as above; assay type: cell-based; details: RPMI-1640 medium
Description: More specifically, a determination of inhibitory concentration (IC) of hassallidin A and hassallidin B for various fungi, Candida species and Candida strains were performed with different media (RPMI-1640 or SAB or AM3) in a microdilution assay by following the guidelines in NCCLS documents M^38-P^25 and M27-A2^26 carried out as follows Each substance was dissolved with 100% dimethyl sulfoxide (Serva, Heidelberg, Germany) to give a stock solution of 3.2 mg/ml followed by nine log2 dilution steps with the solvent. This served as a 100-fold concentrated dilution series ranging from 1.6 mg/ml to 0.003 mg/ml of the test substance. The final concentration of the test substance was 16 µg/ml to 0.031 µg/ml.
Therefore the 100-fold concentrated dilution series (with 100% DMSO) was diluted to the final concentration by two dilution steps: • (1) Each concentration of the 100-fold concentrated substance was diluted with test medium for 1:50 (for ex.: adding of 13 µl of the test substance to 637 µl test medium). • (2) 100 µl of each 1:50 diluted concentration was filled in a row of wells of a microtitre plate. One well was without the substance but with the 1:50 diluted solvent serving as growth control.
A further 1:2 dilution of the antifungal was made by the inoculation of each well with 100 µl of the test organism, which was suspended in the test medium. The remaining well of the row was used for sterility control of the medium. The inoculum was strictly prepared according the NCCLS^25 guidelines, resulting in […] for Candida-species and Cryptococcus neoformans. For hyphomycetes CFU's were tenfold higher (see NCCLS). ^26 The growth of the hyphomycetes respectively the inhibition was measured by visual reading with the help of a reading mirror; scoring was done according to NCCLS :^26 score 0 corresponds to a optical clear well or an IC95 or higher, score 1 corresponds to an inhibition of 80 percent (IC80) and the score 2 of the NCCLS definition corresponds to the IC50 values in the tables. […] The percent inhibition IC50, IC80 or IC95 (corresponding the scores of 2, 1 and 0) was calculated by the following formula: (100−[(ODof the well−ODof the medium)] × 100)/((ODof the growth control−ODof the medium).) [formula] Table 3. Test series for determining IC values of hassallidin A and B in different media using Candida albicans and Candida krusei. The IC values were measured after 24 h and 48 h at 30 °C.

[2] = test system: Jurkat ATCC-TIB-152 (human acute T cell leukemia) celline; test: cytotoxicity, cell viability by XTT test (1st test); assay type: cell-based
Description: Furthermore, the compounds according to the present invention were tested in relation to their activity against cancer cell lines. They were tested for cytotoxicity by determining the IC50-values. The IC50-value was determined by the procedure discrided in Filip P, Anke T, Sterner O, 5-(2'-oxoheptadecyl)-resorcinol and 5-(2'-oxononadecyl)-resorcinol, cytotoxic metabolites from a wood-inhabiting basidiomycete, ZNaturforsch [C]. 2002 Nov-Dec;57(11-12):1004-8. Sample preparation was carried out as follows: 1 st test The compound (hassalidin B) (20 µg) was dissolved in 4 µl DMSO and 16 µl H2O to give a concentration of 1 mg/ml. 1 µl of this solution and 0,5 µl of this solution were used to inoculate 200 µl culture medium each, thus making up a concentration of hassallidin B of 5µg/ml and 2,5 µ/ml, respectively. Thereafter 68 µl H2O were added to 17 µl of the solution of 1 mg/ml hassalidin B to give a concentration of 200 µg/ml, and again 1 µl and 0,5 µl of this solution were used to inoculate 200 µl of culture medium each thus making up a final concentration of hassallidin B of 1 µg/ml and 0,5 µg/ml, respectively. […] Cell viability of cell growing was measured by the XTT test (Boehringer, Mannheim/Roche) as discribed in the product information. […]

Row | Substance | activity in disk diffusion assay (Streptomyces versicolor) | activity in disk diffusion assay (Escherchia coli) | activity in disk diffusion assay (Bacillus subtilis) | IC80 (ATCC 6258 (QC); 35°C/24h) | IC95 (ATCC 6258 (QC); 35°C/24h) | IC80 (ATCC 6258 (QC); 35°C/48h) | IC50 ([1]; 35°C/24h, visual) | IC80 ([1]; 35°C/24h, visual) | IC95 ([1]; 35°C/24h, visual) | IC50 ([1]; 35°C/48h) | IC80 ([1]; 35°C/48h) | IC95 ([1]; 35°C/48h) | IC50-value [2]
1 | hassallidin A | No activities | No activities | No activities | 8 µg/mL | 8 µg/mL | 16 µg/mL | 4 (visual) µg/mL | 4 (visual) µg/mL | 4 (visual) µg/mL | 4 µg/mL | 4 µg/mL | 4 µg/mL | –
2 | hassallidin B | – | – | – | – | – | – | – | – | – | – | – | – | 0.2 µg/mL
